For data set [1], the system named is Caco-2 cells. In words: LDH release assay (membrane integrity). It counts as cell-based, human. The note with it: Caco-2, CytoTox-ONE LDH release, 0.4 to 400 μg/mL, 24 h (method: 48 h), 37°C, mean of three experiments. Here is the method: The human colonic adenocarcinoma (Caco-2) cells were purchased from ATCC. Cells were cultured in DMEM medium in a humidified atmosphere containing 5% CO2 at 37°C. For the LDH release assay, cells were seeded in 96 well flat bottom culture plates (1 × 10^4 cells/well). Caco-2 cells, which have been frequently used for permeability studies across the intestinal epithelium, were selected in this study for evaluating the cytotoxicity of bacteriocins and their interaction with intestinal epithelium during GI transit to determine their cytotoxicity.
The CytoTox-ONE™ cytotoxicity assay kit (Promega, United States) was used to measure the LDH release. […] Lysis solution (Promega) was added in a 1:1 ratio to selected control wells to induce the maximal release of LDH and the plate was incubated for 5 min. […] Finally, stop solution was then added to each well, and absorbance was measured using a spectrophotometer (Tecan Spark 20M, Morrisville, NC, United States) at excitation/emission wavelengths of 560/590 nm. Each compound-treated value was blanked with the values of the control-treated cells and cytotoxicity was expressed as percentage of the maximal LDH release (lysis solution treated cells), calculated by the following formula: […]
In general terms: LDH leaks from cells whose membrane has failed.

Data set [2] relates to rat erythrocytes. The data set is described as follows: Hemolytic activity. Format: cell-based. To be noted: 45 min, 37°C. How it is done:
The experiment was performed after prior approval from the local ethics committee by TransBIOTech laboratory. Hemolytic potential of bacteriocins was evaluated according to [FDA (2005)]. Rat blood was collected into a heparinized tube and added in a 1:1 volume (100 μL) to serially diluted compounds (in 100 μL PBS), in a conical 96-well plate. 10% Triton X-100 and PBS were used as a positive and negative controls, respectively. The plates were sealed and incubated for 45 min at 37°C prior to centrifugation at 2,000 g for 10 min to pellet red blood cells. The supernatant was then transferred into clear 96-well plates and the absorbance was read at 540 nm (hemoglobin). The percentage of hemolysis was calculated as follow, with RBC standing for red blood cells:
%Hemolysis=AbsorbanceofRBCtreatedwithbacteriocins-AbsorbanceofRBCtreatedwithPBS/AbsorbanceofRBCtreatedwithTritonX100-AbsorbanceofRBCtreatedwithPBS

With `C=C(NC(=O)[C@@H](NC(=O)[C@H](Cc1c[nH]cn1)NC(=O)[C@@H](NC(=O)[C@H](CO)NC(=O)[C@@H]1CS[C@@H](C)[C@H]2NC(=O)[C@H](C)NC(=O)[C@H](NC(=O)[C@H](CCCCN)NC(=O)[C@H](CCSC)NC(=O)[C@H](CC(N)=O)NC(=O)[C@@H]3CS[C@@H](C)[C@@H](NC(=O)[C@H](CCCCN)NC(=O)[C@@H]4CS[C@@H](C)[C@@H](NC(=O)[C@@H]5CSC[C@@H](NC(=O)/C(=C/C)NC(=O)[C@@H](N)[C@@H](C)CC)C(=O)N[C@@H]([C@@H](C)CC)C(=O)NC(=C)C(=O)N[C@@H](CC(C)C)C(=O)N5)C(=O)N5CCC[C@H]5C(=O)NCC(=O)N4)C(=O)NCC(=O)N[C@@H](C)C(=O)N[C@@H](CC(C)C)C(=O)N[C@@H](CCSC)C(=O)NCC(=O)N3)[C@H](C)SC[C@H](NC2=O)C(=O)N[C@@H](CC(N)=O)C(=O)N1)[C@@H](C)CC)C(C)C)C(=O)N[C@@H](CCCCN)C(=O)O` [nisin Z], the “Membrane integrity (LDH release)” value in data set [1] is given as “uncompromised”. Further, in data set [2] (0.4 to 400 μg/mL), the “Concentration above which dose-dependent increase in percentage of hemolysis was shown” value was “higher than 50 μg/mL”. Moreover, the Hemolysis entry in data set [2] (at concentrations close to 400 μg/mL) was “approximately 100%”.

The values above are taken from publication PMC8824275, “Gastrointestinal Stability and Cytotoxicity of Bacteriocins From Gram-Positive and Gram-Negative Bacteria: A Comparative in vitro Study” (Frontiers in Microbiology, 2022).
